US8461328B2, “Tricyclic heterocyclic compounds, compositions and methods of use thereof” (Genentech, Inc., priority 2010, dated 2013)
pKi: −log10 of the molar value.

How the values were obtained:
Format in all cases: biochemical
JAK1 = biological target: T1, JAK1 (Homo sapiens, UniProt P23458); assay: JAK1 inhibition (Table 4); settings: read-out: JAK1 Ki
T1 construct: made in house; host or cells: SF9 insect cells (baculovirus)

JAK2 = biological target: T2, JAK2 (Homo sapiens, UniProt O60674); assay: JAK2 inhibition (Table 4); settings: read-out: JAK2 Ki
T2 construct: made in house; host or cells: SF9 insect cells (baculovirus)

TYK2 = biological target: T3, TYK2 (Homo sapiens, UniProt P29597); assay: TYK2 inhibition (Table 4)
T3 construct: made in house; host or cells: SF9 insect cells (baculovirus)
T3 sequence (P29597 873-1187): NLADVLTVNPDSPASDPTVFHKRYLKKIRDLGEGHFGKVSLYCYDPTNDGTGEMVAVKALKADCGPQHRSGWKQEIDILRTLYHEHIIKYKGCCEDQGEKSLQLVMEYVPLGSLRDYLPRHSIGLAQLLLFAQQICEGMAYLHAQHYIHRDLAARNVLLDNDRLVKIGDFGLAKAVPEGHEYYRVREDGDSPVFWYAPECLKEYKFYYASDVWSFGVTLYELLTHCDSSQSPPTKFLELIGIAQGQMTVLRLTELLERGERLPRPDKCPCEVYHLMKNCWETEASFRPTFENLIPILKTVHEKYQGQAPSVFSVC

JAK3 = biological target: T4, JAK3 (Homo sapiens, UniProt P52333); assay: JAK3 inhibition (Table 4); settings: read-out: JAK3 Ki
T4 construct: made in house; host or cells: SF9 insect cells (baculovirus)
T4 sequence (P52333 783-1124): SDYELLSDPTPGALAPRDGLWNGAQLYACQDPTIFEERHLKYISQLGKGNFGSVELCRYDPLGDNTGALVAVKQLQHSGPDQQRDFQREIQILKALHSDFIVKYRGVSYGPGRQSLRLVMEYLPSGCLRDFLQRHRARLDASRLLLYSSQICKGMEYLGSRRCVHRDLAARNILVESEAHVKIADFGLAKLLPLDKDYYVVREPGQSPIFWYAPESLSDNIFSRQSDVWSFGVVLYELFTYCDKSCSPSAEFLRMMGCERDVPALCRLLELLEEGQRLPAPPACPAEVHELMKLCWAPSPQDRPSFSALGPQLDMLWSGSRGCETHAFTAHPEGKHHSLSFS

T1 sequence (P23458 852-1154): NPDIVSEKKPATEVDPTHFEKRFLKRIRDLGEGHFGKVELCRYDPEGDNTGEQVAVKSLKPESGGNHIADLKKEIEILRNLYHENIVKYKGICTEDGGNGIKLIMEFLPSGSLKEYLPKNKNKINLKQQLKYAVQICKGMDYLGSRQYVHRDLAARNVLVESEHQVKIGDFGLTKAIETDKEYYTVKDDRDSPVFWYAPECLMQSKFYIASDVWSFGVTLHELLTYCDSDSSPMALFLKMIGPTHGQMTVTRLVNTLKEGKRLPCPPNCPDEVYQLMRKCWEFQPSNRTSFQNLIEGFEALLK
T2 sequence (O60674 812-1132): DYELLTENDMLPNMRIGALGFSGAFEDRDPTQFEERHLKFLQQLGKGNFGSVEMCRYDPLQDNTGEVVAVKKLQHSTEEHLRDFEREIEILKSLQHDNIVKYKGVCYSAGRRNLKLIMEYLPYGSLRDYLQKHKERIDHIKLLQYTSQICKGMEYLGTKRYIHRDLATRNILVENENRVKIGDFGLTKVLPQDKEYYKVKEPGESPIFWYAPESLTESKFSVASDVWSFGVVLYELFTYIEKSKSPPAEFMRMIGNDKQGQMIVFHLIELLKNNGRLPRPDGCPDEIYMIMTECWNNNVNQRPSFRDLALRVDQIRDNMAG

SMILES	pKi (JAK1)	pKi (JAK2)	pKi (TYK2)	pKi (JAK3)
CN1CCOCC1C(=O)N1CCC(n2cnc3cnc4[nH]ccc4c32)CC1 (single isomer, unassigned) [Example 197a, (4-Methyl-morpholin-3-yl)-[4-(6H-1,2,3,5,6-tetraaza-as-indacen-1-yl)-piperidin-1-yl]-methanone]	6.92	6.66	5.56	5.72
NC1CCCC(n2cnc3cnc4[nH]ccc4c32)C1 (single isomer, unassigned) [Example 366, 3-(6H-1,3,5,6-Tetraaza-as-indacen-1-yl)-cyclohexylamine]	7.34	7.16	6.52	6.42
NC1CCCC(n2cnc3cnc4[nH]ccc4c32)C1 (single isomer, unassigned) [Example 367, 3-(6H-1,3,5,6-Tetraaza-as-indacen-1-yl)-cyclohexylamine]	7.37	7.04	6.80	6.34
CC(C1CCCO1)n1cnc2cnc3[nH]ccc3c21 (single isomer, unassigned) [Example 417, 1-[1-(Tetrahydro-furan-2-yl)-ethyl]-1,6-dihydro-1,3,5,6-tetraaza-as-indacene]	7.05	7.13	6.47	7.37
CC(C1CCCO1)n1cnc2cnc3[nH]ccc3c21 (single isomer, unassigned) [Example 418, 1-[1-(Tetrahydro-furan-2-yl)-ethyl]-1,6-dihydro-1,3,5,6-tetraaza-as-indacene]	7.46	7.52	6.76	7.48
Cc1nc2cnc3[nH]ccc3c2n1C(C)C1CCCO1 (single isomer, unassigned) [Example 426, 2-Methyl-1-[1-(tetrahydro-furan-2-yl)-ethyl]-1,6-dihydro-1,3,5,6-tetraaza-as-indacene]	7.22	7.25	6.48	7.58
c1cc2c(ncc3nnn(C4CCCOC4)c32)[nH]1 (single isomer, unassigned) [Example 459, 1-(Tetrahydro-pyran-3-yl)-1,6-dihydro-1,2,3,5,6-pentaaza-as-indacene]	7.47	7.22	6.90	6.55
C[C@H](O)c1nc2cnc3[nH]ccc3c2n1C1CCCOC1 (single isomer, unassigned) [Example 461]	6.45	5.86	5.80	5.93
C[C@H](O)c1nc2cnc3[nH]ccc3c2n1C1CCCOC1 (single isomer, unassigned) [Example 462]	7.05	6.27	5.86	5.94
OCc1nc2cnc3[nH]ccc3c2n1C1CCCOC1 (single isomer, unassigned) [Example 464, [1-(Tetrahydro-pyran-3-yl)-1,6-dihydro-1,3,5,6-tetraaza-as-indacen-2-yl]-methanol]	7.24	6.65	6.73	6.39
CC(C)(C)OC(=O)NC1CCCC(n2cnc3cnc4[nH]ccc4c32)C1 (single isomer, unassigned) [Example 477, [3-(6H-1,3,5,6-Tetraaza-as-indacen-1-yl)-cyclohexyl]-carbamic acid tert-butyl ester]	7.39	6.77	6.10	6.63
CC(=O)NC1CCCC(n2cnc3cnc4[nH]ccc4c32)C1 (single isomer, unassigned) [Example 478, N-[3-(6H-1,3,5,6-Tetraaza-as-indacen-1-yl)-cyclohexyl]-acetamide]	7.08	6.90	6.37	6.28
CC(=O)NC1CCCC(n2cnc3cnc4[nH]ccc4c32)C1 (single isomer, unassigned) [Example 479, N-[3-(6H-1,3,5,6-Tetraaza-as-indacen-1-yl)-cyclohexyl]-acetamide]	6.89	6.91	6.38	6.92

The next compounds have a higher pKi (JAK1) than those just listed; values first:

pKi (JAK1)	pKi (JAK2)	pKi (TYK2)	pKi (JAK3)	SMILES
7.49	6.69	6.18	5.49	CN1CCOCC1C(=O)N1CCC(n2cnc3cnc4[nH]ccc4c32)CC1 (single isomer, unassigned) [Example 197, (4-Methyl-morpholin-3-yl)-[4-(6H-1,2,3,5,6-tetraaza-as-indacen-1-yl)-piperidin-1-yl]-methanone]
7.62	6.95	6.73	6.48	NC1CCCC(n2cnc3cnc4[nH]ccc4c32)C1 (single isomer, unassigned) [Example 365, 3-(6H-1,3,5,6-Tetraaza-as-indacen-1-yl)-cyclohexylamine]
7.56	7.71	6.89	6.38	NC1CCCC(n2cnc3cnc4[nH]ccc4c32)C1 (single isomer, unassigned) [Example 368, 3-(6H-1,3,5,6-Tetraaza-as-indacen-1-yl)-cyclohexylamine]
8.08	7.76	7.12	6.50	c1cc2c(ncc3nnn(C4CCCOC4)c32)[nH]1 (single isomer, unassigned) [Example 460, 1-(Tetrahydro-pyran-3-yl)-1,6-dihydro-1,2,3,5,6-pentaaza-as-indacene]
7.91	7.13	7.26	6.72	OCc1nc2cnc3[nH]ccc3c2n1C1CCCOC1 (single isomer, unassigned) [Example 463, [1-(Tetrahydro-pyran-3-yl)-1,6-dihydro-1,3,5,6-tetraaza-as-indacen-2-yl]-methanol]
7.63	7.30	7.15	7.29	c1cc2c(ncc3ncn(C4CCCOC4)c32)[nH]1 (single isomer, unassigned) [Example 465, 1-(Tetrahydro-pyran-3-yl)-1,6-dihydro-1,3,5,6-tetraaza-as-indacene]
8.02	7.61	7.21	7.12	c1cc2c(ncc3ncn(C4CCCOC4)c32)[nH]1 (single isomer, unassigned) [Example 466, 1-(Tetrahydro-pyran-3-yl)-1,6-dihydro-1,3,5,6-tetraaza-as-indacene]
8.68	8.36	7.33	7.71	CC(C)(C)OC(=O)NC1CCCC(n2cnc3cnc4[nH]ccc4c32)C1 (single isomer, unassigned) [Example 474, [3-(6H-1,3,5,6-Tetraaza-as-indacen-1-yl)-cyclohexyl]-carbamic acid tert-butyl ester]
7.49	6.96	5.65	7.66	CC(C)(C)OC(=O)NC1CCCC(n2cnc3cnc4[nH]ccc4c32)C1 (single isomer, unassigned) [Example 475, [3-(6H-1,3,5,6-Tetraaza-as-indacen-1-yl)-cyclohexyl]-carbamic acid tert-butyl ester]
7.91	7.54	6.52	7.16	CC(C)(C)OC(=O)NC1CCCC(n2cnc3cnc4[nH]ccc4c32)C1 (single isomer, unassigned) [Example 476, [3-(6H-1,3,5,6-Tetraaza-as-indacen-1-yl)-cyclohexyl]-carbamic acid tert-butyl ester]
